According to PMC10443802, “Targeting a xenobiotic transporter to ameliorate vincristine-induced sensory neuropathy” (JCI Insight, 2023):
Where “and” joins values, the source holds several entries; their conditions need not be identical. Equal entries are not always repeated.

What was measured:
mOATP1B2 = target: T1, mOATP1B2 (Mus musculus, UniProt Q9JJL3); assay: Inhibition of vincristine uptake in HEK293 cells overexpressing mOATP1B2; type: cell-based; conditions: HEK293 mOATP1B2; inhibitor 15 min pre-treatment
T1 sequence (Q9JJL3 1-689): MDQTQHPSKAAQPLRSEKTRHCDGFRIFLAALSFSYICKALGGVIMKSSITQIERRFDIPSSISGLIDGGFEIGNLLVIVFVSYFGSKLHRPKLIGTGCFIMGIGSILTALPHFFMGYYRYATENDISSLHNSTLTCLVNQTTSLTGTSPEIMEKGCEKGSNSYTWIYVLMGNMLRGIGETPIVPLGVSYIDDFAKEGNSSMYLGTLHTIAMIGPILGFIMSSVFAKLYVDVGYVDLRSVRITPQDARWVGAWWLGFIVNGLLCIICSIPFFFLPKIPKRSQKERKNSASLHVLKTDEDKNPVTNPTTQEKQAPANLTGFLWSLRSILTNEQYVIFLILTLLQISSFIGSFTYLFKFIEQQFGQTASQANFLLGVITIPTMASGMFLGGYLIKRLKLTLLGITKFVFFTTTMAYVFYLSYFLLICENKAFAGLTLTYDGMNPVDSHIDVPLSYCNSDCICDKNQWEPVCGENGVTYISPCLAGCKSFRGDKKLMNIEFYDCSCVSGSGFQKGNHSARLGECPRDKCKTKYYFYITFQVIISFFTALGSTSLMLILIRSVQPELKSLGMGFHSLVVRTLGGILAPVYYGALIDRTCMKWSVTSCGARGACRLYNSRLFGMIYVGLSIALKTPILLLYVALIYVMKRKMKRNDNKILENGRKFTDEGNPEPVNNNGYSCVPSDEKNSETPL

[1] = conventional chronic regimen; cited from earlier work
[2] = Plasma pharmacokinetics of vincristine in mice; conditions: for concentration at 1 h / concentration at 4 h / concentration at 0.5 h / concentration at 0.25 h / AUC(0-t) / Cmax / concentration at 2 h: mouse, in vivo; for AUC(0-t) / Cmax: male; for AUC(0-t): AUC0-4h
Experimental: were collected at the final time point. […]
specimens were stored at -80°C until further processing. […]
stainless steel bead (Qiagen) and processed for 4 min at 40 Hz. Finally, the beads were removed, and the homogenized samples were stored at -80°C until analysis by LC-MS/MS.
Pharmacokinetic parameters were calculated by non -compartmental analysis using Phoenix WinNonlin version 8.0 (Certara). Peak plasma concentration (C max) was determined by visual inspection of the data from the concentration-time curves. The linear trapezoidal rule was used to obtain the area under the plasma concentration-time curve (AUC), and drug levels in tissues were corrected for […]
Determination of drug levels.
Quantiva triple quadrupole mass spectrometer from Thermo Fisher Scientific was used for LC-MS/MS […]
column was maintained at 50°C. […]
quantification was 5 ng/mL.
450 °C. […] Precursor molecular ions and […]
dose of 4 mg/kg. […] The sample
Morphologic and morphometric evaluation. […]
for light microscopy and morphometric analysis.

hOCTN1 = hOCTN1 (Homo sapiens, UniProt Q9H015); assay: Vincristine uptake screen, HeLa cells overexpressing hOCTN1; type: in vitro ADME
Chain of hOCTN1 (Q9H015 whole entry): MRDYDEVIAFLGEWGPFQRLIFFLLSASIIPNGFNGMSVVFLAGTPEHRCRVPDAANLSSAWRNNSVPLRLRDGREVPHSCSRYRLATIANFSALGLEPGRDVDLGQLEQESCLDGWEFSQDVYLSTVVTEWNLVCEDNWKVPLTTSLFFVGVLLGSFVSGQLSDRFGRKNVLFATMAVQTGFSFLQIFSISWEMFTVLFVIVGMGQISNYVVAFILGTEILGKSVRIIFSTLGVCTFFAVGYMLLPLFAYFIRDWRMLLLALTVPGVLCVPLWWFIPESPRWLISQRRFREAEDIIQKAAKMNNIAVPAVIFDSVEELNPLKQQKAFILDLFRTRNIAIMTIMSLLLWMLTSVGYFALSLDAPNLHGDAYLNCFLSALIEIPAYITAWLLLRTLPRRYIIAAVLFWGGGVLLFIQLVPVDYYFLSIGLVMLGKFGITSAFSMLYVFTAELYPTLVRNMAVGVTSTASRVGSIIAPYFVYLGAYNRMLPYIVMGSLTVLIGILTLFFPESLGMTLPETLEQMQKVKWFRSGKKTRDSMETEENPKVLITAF
Experimental: Relative uptake is expressed as percentage change compared with empty vector controls (n = 4–14 per group). […] Human OATP1B1 and OATP1B3 transporter–overexpressed cells were used as positive controls; empty vector controls were used as the negative control. […] Mechanical allodynia (C), thermal hyperalgesia (D), and sciatic nerve maximal action potential amplitudes (E) are expressed as percentage change relative to baseline values (n = 6–8 per group). Statistical analysis was performed using a 2-way ANOVA with Bonferroni’s post hoc test. **P < 0.01, ***P < 0.001, ****P < 0.0001, compared with baseline values. […] Data are shown as mean ± SEM. […]
transfected with transporters of interest, including hOAT1, hOAT3, hOAT4, hOATP1A2, hOATP3A1, hOATP4A1, hOATP5A1, hOATP1C1, hOATP1B1, hOATP1B3, hOATP2B1, hOCT1, hOCT2, hOCTN1, hOCTN2, hASBT, hNTCP, hNPT1, hMATE1, hOSTα/β, hPEPT1, hPEPT2, rOatp1a1, rOatp1a4, rOatp1a5, rOatp1b2, rNtcp, rAsbt, rOat1, and rOct1. Cells were transfected with expression plasmid or vector control lacking any insert using Lipofectin reagent (Invitrogen). Sixteen hours thereafter, cells were washed with transport media (OPTIMEM, Invitrogen) and treated with radiolabeled drug. […] The cellular radioactivity was quantified by liquid scintillation counting as described above. […]

[3] = DBA/1LacJ, ip, 1 mg/kg, Plasma concentration of vincristine
[4] = ip, 1 mg/kg, Plasma concentration of vincristine

In the case of `Cc1cn(-c2cc(NC(=O)c3ccc(C)c(Nc4nccc(-c5cccnc5)n4)c3)cc(C(F)(F)F)c2)cn1` [Nilotinib, nilotinib], the “Vincristine uptake (% of vehicle)” value (mOATP1B2) is listed as 73.0702 % of vehicle and 58.7366 % of vehicle and 55.2034 % of vehicle and 63.6149 % of vehicle and 58.7604 % of vehicle and 51.7599 % of vehicle, the “Median time from start of therapy to onset of QT events” value [1] is listed as greater than 14 months and the “Range of time from start of therapy to onset of QT events” value [1] is listed as 2–68 months.

`CC[C@]1(O)C[C@H]2CN(CCc3c([nH]c4ccccc34)[C@@](C(=O)OC)(c3cc4c(cc3OC)N(C=O)[C@H]3[C@@](O)(C(=O)OC)[C@H](OC(C)=O)[C@]5(CC)C=CCN6CC[C@]43[C@@H]65)C2)C1` [Vincristine, vincristine] showed a concentration at 1 h ([2]; DBA/1LacJ, 1 mg/kg, Plasma concentration of vincristine, OATP1B2(-/-) + Vehicle, vincristine 1 mg/kg, 1 h) of 88.4 ng/mL, a concentration at 4 h ([2]; DBA/1LacJ, 1 mg/kg, Plasma concentration of vincristine, OATP1B2(-/-) + Vehicle, vincristine 1 mg/kg, 4 h) of 65.5 ng/mL and a concentration at 0.5 h ([2]; DBA/1LacJ, Plasma concentration of vincristine, OATP1B2(-/-) + Nilotinib (100 mg/kg pretreatment), vincristine 1 mg/kg, 0.5 h) of 225 ng/mL. For the same compound, the concentration at 1 h ([2]; DBA/1LacJ, Plasma concentration of vincristine, OATP1B2(-/-) + Nilotinib (100 mg/kg pretreatment), vincristine 1 mg/kg, 1 h) was 108 ng/mL, the concentration at 0.25 h [2, 3] was 707 ng/mL and the concentration at 0.5 h [2, 3] was 599 ng/mL. The concentration at 1 h [2, 3] was 315 ng/mL, the concentration at 4 h [2, 3] was 90.9 ng/mL and the “Plasma concentration of Vincristine” value ([2]; Wild-type mice, 2 h) was 104.1 ng/mL. It also gave an AUC(0-t) ([2]; DBA/1LacJ, ip, 1 mg/kg) of 1290 ± 49.8 ng·h/mL, a Cmax ([2]; DBA/1LacJ, ip, 1 mg/kg) of 1130 ± 148 ng/mL and an AUC(0-t) ([2]; ip, 1 mg/kg) of 1060 ± 36.2 ng·h/mL. The Cmax ([2]; ip, 1 mg/kg) was 1190 ± 113 ng/mL, the concentration at 1 h ([2]; 1 mg/kg, Plasma concentration of Vincristine (ng/mL), OATP1A/1B(-/-) mice, 1 h) was 195 ng/mL and the concentration at 2 h ([2]; 1 mg/kg, Plasma concentration of Vincristine (ng/mL), OATP1A/1B(-/-) mice, 2 h) was 89.9 ng/mL. It also gave a concentration at 2 h ([2]; 1 mg/kg, Plasma concentration of Vincristine (ng/mL), Wild-type mice, 2 h) of 112 ng/mL, a concentration at 1 h ([2]; 1 mg/kg, Plasma concentration of vincristine, Wild-type + Vehicle, vincristine 1 mg/kg, 1 h) of 116 ng/mL and a concentration at 0.5 h ([2]; Plasma concentration of vincristine, Wild-type + Nilotinib (100 mg/kg pretreatment), vincristine 1 mg/kg, 0.5 h) of 124 ng/mL. For the same compound, the concentration at 1 h ([2]; Plasma concentration of vincristine, Wild-type + Nilotinib (100 mg/kg pretreatment), vincristine 1 mg/kg, 1 h) was 104 ng/mL, the concentration at 0.25 h [2, 4] was 735 ng/mL and the concentration at 0.5 h [2, 4] was 376 ng/mL. The concentration at 1 h [2, 4] was 273 ng/mL, the concentration at 4 h [2, 4] was 114 ng/mL and the concentration at 4 h ([2]; ip, 1 mg/kg, Plasma concentration of vincristine, Wild-type mice, 1 mg/kg i.p., 4 h) was 102 ng/mL. The “Vincristine uptake (% of vector control)” value (hOCTN1) was 169.00 % of vector control and 132.00 % of vector control and 109.00 % of vector control and 131.00 % of vector control and 135.00 % of vector control and 167.00 % of vector control and 158.00 % of vector control.
